Patent US20110065760A1, “COMPOUNDS FOR THE INHIBITION OF ROTAMASES AND USE THEREOF” (Jerini AG, priority 2002, published 2011)
Where two headings read alike, the source gives them in different places.

Tests used:
hPin1 = hPin1 (Homo sapiens, UniProt Q13526); assay: protease-coupled PPIase assay, hPin1; format: biochemical; details: 6 nM hPin1, substrate Ac-Ala-Ala-Ser(PO3H2)-Pro-Arg-pNA, trypsin, pH 7.8, 6° C.; read-out: IC50 class, Target T-1 (hPin1)
hFKBP12 = hFKBP12 (Homo sapiens, UniProt P62942); assay: protease-coupled PPIase assay, hFKBP12; format: biochemical; details: 20 nM hFKBP12, substrate Suc-Ala-Phe-Pro-Phe-pNA, chymotrypsin, pH 7.8, 6° C.; read-out: IC50 class, Target T-2 (hFKBP12)
Papain = molecular target: T1, Papain (Carica papaya, UniProt P00784); assay: papain assay; format: biochemical; details: 16 μg/ml papain, 2 mM Bz-DL-Arg-pNA, pH 6.5, 30° C., 30 min incubation; read-out: IC50 class, Target T-6 (Papain)
T1 sequence (P00784 134-345): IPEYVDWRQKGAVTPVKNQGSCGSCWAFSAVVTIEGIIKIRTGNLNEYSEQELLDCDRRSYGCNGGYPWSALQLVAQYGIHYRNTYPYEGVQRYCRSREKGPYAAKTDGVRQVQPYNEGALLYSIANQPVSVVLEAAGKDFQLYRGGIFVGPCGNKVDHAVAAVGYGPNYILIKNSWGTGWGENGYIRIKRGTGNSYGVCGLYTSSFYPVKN
Description: In order to investigate the impact of some of the inventive compounds on the activity of key proteases the following assay was performed: Protease activities were measured spectrophotometrically at 30° C. according to Schomburg and Salzmann (Schomburg, B.; Salzmann M. GBF: Enzyme Handbook. Springer Verlag, Berlin Heidelberg, 1991) and Bergmeyer et al. (Bergmeyer, H. U.; Bergmeyer, J.; Graβl, M. Methods of Enzymatic Analysis, Vol. V Enzymes 3: Peptides, Proteinases and Their Inhibitors. pp 55-371, VCH, Weinheim, 1988). The release of 4-nitroaniline was determined at 390 nm with a Spectramax Plus UV/Vis spectrophotometer (Molecular Devices). The cathepsin B assay was performed in a reaction mixture containing 0.2 μg/ml cathepsin B, 2 mM Z-Arg-Arg-pNA in 88 mM KH2PO4, 12 mM Na2HPO4, 1.33 mM EDTA, 0.03% Brij 35 (pH 5.8). The trypsin assay was carried out in a reaction mixture containing 0.1 μg/ml trypsin and 120 μM Ac-Ala-Ala-Ser(PO3H2)-Pro-Arg-pNA in 35 mM HEPES (pH 7.8) and the papain assay in a mixture consisting of 16 μg/ml papain and 2 mM Bz-DL-Arg-pNA in 10 mM Na2HPO4, 2 mM L-Cys, 5 mM EDTA (pH 6.5). In general, reactions were started by addition of peptide substrate after a 30 min incubation of 1-100 μM effector with given concentrations of enzyme.

EcParvulin = EcParvulin (Escherichia coli, UniProt P0A9L5); assay: protease-coupled PPIase assay, EcParvulin; format: biochemical
hCyp18 = hCyp18 (Homo sapiens, UniProt P62937); assay: protease-coupled PPIase assay, hCyp18; format: biochemical; details: 10 nM hCyp18, substrate Suc-Ala-Phe-Pro-Phe-pNA, chymotrypsin, pH 7.8, 6° C.; read-out: IC50 class, Target T-3 (hCyp18)
LpCyp18 = LpCyp18 (Legionella pneumophila, UniProt Q5ZRZ4); assay: biochemical; details: IC50 class, Target T-4 (LpCyp18)
[1] = WST-1 cytotoxicity assay, HL-60; format: cell-based; details: human, HL-60 cells (acute myeloid leukemia); WST-1, 48 h incubation; read-out: EC50 class, cytotoxic effect, CL-1 (HL-60)
Description: For this cytotoxic evaluation of the compounds the commercial available WST-1 assay (Roche) was used according to the manufacturer's instructions. The assay is based on the cleavage of the tetrazolium salt WST-1 by mitochondrial dehydrogenases found in viable cells. In general compounds were added to cells cultured in 96-well plates at 37° C. After 48 h of incubation 10 μl of WST-1 solution was added. The formazan dye was analyzed with an ELISA plate reader at (450 vs. 620) nm. CL-1: human acute myeloid leukemia, HL-60 CL-2: human cervix carcinoma, HeLa CL-3: human prostate carcinoma, PC-3 CL-4: human colon adenocarcinoma, Caco-2 CL-5: human breast adenocarcinoma, MCF-7

[2] = 20 nM EcParvulin, substrate Suc-Ala-Phe-Pro-Phe-pNA, chymotrypsin, pH 7.8, 6° C., read-out: IC50 class, Target T-5 (EcParv)

Sequence of hFKBP12 (P62942 whole entry): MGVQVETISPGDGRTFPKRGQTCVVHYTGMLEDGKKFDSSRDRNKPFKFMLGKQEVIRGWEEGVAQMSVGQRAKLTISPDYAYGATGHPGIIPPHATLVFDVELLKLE
Sequence of EcParvulin (P0A9L5 whole entry): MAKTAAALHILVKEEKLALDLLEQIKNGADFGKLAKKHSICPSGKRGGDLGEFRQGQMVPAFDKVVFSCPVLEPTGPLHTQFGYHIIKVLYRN
Sequence of hPin1 (Q13526 whole entry): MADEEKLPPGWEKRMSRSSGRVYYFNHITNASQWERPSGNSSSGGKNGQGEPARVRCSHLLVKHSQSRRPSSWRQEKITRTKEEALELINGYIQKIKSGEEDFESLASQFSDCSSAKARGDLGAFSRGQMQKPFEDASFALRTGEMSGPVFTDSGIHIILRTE
Sequence of LpCyp18 (Q5ZRZ4 1-164): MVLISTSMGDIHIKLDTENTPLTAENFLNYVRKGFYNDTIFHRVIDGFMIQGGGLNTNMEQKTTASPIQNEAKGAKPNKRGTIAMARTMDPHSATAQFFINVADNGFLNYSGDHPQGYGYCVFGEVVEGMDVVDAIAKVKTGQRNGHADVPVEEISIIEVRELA
Sequence of hCyp18 (P62937 whole entry): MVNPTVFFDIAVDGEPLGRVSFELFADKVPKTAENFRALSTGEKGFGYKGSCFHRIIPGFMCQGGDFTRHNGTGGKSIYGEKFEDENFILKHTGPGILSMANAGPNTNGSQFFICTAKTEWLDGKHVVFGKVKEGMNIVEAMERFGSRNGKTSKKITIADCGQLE

Compound	IC50 (hPin1) [µM]	IC50 (hFKBP12) [µM]	IC50 (Papain) [µM]	IC50 (EcParvulin) [µM]	IC50 (hCyp18) [µM]	IC50 (LpCyp18) [µM]	IC50 (EcParvulin; [2]) [µM]	EC50 at 48 h [1] [µM]
CC(C)(C)NC(=O)Nc1cc(Cl)cc(Cl)c1O [Compound 31]	< 1							
Cc1c(Cl)cc(NC(=O)NC23CC4CC(CC(C4)C2)C3)c(O)c1Cl [Compound 118]	1 to 10	50 to 100	> 100	1 to 10	10 to 50	10 to 50		
Cc1c(Cl)cc(NC(=O)Nc2ccccc2)c(O)c1Cl [Compound 120]	10 to 50	50 to 100			10 to 50	> 100		
CC(C)(C)CC(C)(C)NC(=O)Nc1cc(Br)cc(F)c1O [Compound 126]	< 1							
CC(C)(C)NC(=O)Nc1cc(Br)cc(F)c1O [Compound 127]	1 to 10							
O=C(Nc1cc(Br)cc(F)c1O)NC12CC3CC(CC(C3)C1)C2 [Compound 142]	< 1							
Cc1c(Cl)cc(NC(=S)NC(C)(C)CC(C)(C)C)c(O)c1Cl [Compound 257]	< 1							
Cc1c(Cl)cc(NC(=S)Nc2ccccc2C(F)(F)F)c(O)c1Cl [Compound 266]	< 1	> 100			> 100	> 100	1 to 10	
Oc1c(Cl)cccc1NCc1ccccc1Sc1ccc(Cl)cc1 [Compound 343]	1 to 10	> 100	> 100	> 100	10 to 50	> 100		
Cc1c(Cl)cc(NCc2ccccc2Sc2ccc(Cl)cc2)c(O)c1Cl [Compound 371]	< 1	> 100	> 100	10 to 50	10 to 50	> 100		
Oc1c(F)cc(Br)cc1NCc1ccccc1Sc1ccc(Cl)cc1 [Compound 385]			> 100					
O=[N+]([O-])c1ccc(Sc2ccccc2CNc2ccc(F)c(F)c2O)cc1 [Compound 400]	< 1							
CCc1c(Cl)cc(NCc2ccccc2Sc2ccc(Cl)cc2)c(O)c1Cl [Compound 441]	1 to 10	> 100	> 100	> 100	10 to 50	> 100		
Oc1c(Cl)cc(Cl)cc1NCc1cccc(Oc2ccc(Cl)cc2)c1 [Compound 482]	1 to 10	> 100			10 to 50	> 100	> 100	
Cc1c(Cl)cc(NCc2cccc(Oc3ccc(Cl)cc3)c2)c(O)c1Cl [Compound 498]			> 100					
Cc1c(Cl)cc(NCc2cccc(Oc3ccc(C(C)(C)C)cc3)c2)c(O)c1Cl [Compound 499]			> 100					
Cc1c(Cl)cc(NCc2c(F)cccc2Cl)c(O)c1Cl [Compound 512]	10 to 50	> 100			50 to 100	> 100	10 to 50	
CCCCCCCCS(=O)(=O)Nc1cc(Cl)c(C)c(Cl)c1O [Compound 563]	1 to 10	> 100	> 100	> 100	> 100	> 100		
CCOC(=O)C(Cc1ccccc1)NC(=O)Nc1cc(Cl)c(C)c(Cl)c1O (centres unmarked) [Compound 593]	1 to 10							
CC(C)(C)NC(=O)Nc1cc(NC(=O)NC2CCCCC2)cc(Cl)c1O [Compound 605]	< 1	> 100			10 to 50	> 100	1 to 10	
O=C(NCCc1ccccc1)Nc1cc(Cl)c(O)c(NCc2ccccc2Sc2ccc(Cl)cc2)c1 [Compound 610]	< 1							

Compound	IC50 (hPin1) [µM]	IC50 (hFKBP12) [µM]	IC50 (Papain) [µM]	IC50 (EcParvulin) [µM]	IC50 (hCyp18) [µM]	IC50 (LpCyp18) [µM]	IC50 (EcParvulin; [2]) [µM]	EC50 at 48 h [1] [µM]
CC(C)(C)NC(=O)Nc1cc(NC(=O)NCCc2ccccc2)cc(Cl)c1O [Compound 622]	< 1							
CC(C)(C)NC(=O)Nc1cc(-c2nc3ccccc3s2)cc(Cl)c1O [Compound 636]	< 1							
Oc1c(Cl)cc(-c2nc3ccccc3s2)cc1NC(=S)NCc1ccccc1 [Compound 637]	1 to 10							
Oc1c(Cl)cc(-c2nc3ccccc3s2)cc1NC(=S)NCCc1ccccc1 [Compound 638]	1 to 10							
CCCCCNC(=O)Nc1ccc(C)cc1O [Compound 643]	10 to 50	> 100	> 100	> 100	> 100	> 100		
Cc1c(Cl)cc(NC(=O)c2ccc(-c3ccccc3)cc2)c(O)c1Cl [Compound 644]			> 100					
Oc1c(Cl)cc(Cl)cc1NCc1ccco1 [Compound 647]	1 to 10	> 100			> 100	> 100	> 100	
Cc1c(Cl)cc(NCc2ccccc2)c(O)c1Cl [Compound 655]	10 to 50	> 100			> 100	> 100	10 to 50	
Cc1c(Cl)cc(NC(=O)NCCc2nc3ccccc3[nH]2)c(O)c1Cl [Compound 656]	< 1							
Oc1ccc(NCc2ccccc2Sc2ccc(Cl)cc2)c(O)c1 [Compound 672]					1 to 10	10 to 50		
O=C(NCc1ccccc1)Nc1cc(Cl)c(O)c(Cl)c1 [Compound 700]	< 1	> 100			> 100	> 100	10 to 50	
O=C(Nc1cc(Cl)c(O)c(Cl)c1)NC1CCCCC1 [Compound 710]	< 1	> 100	> 100	> 100	> 100	> 100		
Cc1cccc(C)c1NC(=O)Nc1cc(Cl)c(O)c(Cl)c1 [Compound 716]	1 to 10	> 100	> 100	10 to 50	> 100	> 100		
O=C(Nc1cc(Cl)c(O)c(Cl)c1)NC12CC3CC(CC(C3)C1)C2 [Compound 719]	< 1	> 100			50 to 100	10 to 50		
Oc1c(Cl)cc(NC(=S)Nc2ccccc2C(F)(F)F)cc1Cl [Compound 894]	< 1	> 100			> 100	> 100	1 to 10	
O=C(CCc1ccccc1)Nc1cc(Cl)c(O)c(Cl)c1 [Compound 1293]	1 to 10	> 100			> 100	> 100	10 to 50	
O=C(Cc1ccccc1[N+](=O)[O-])Nc1cc(Cl)c(O)c(Cl)c1 [Compound 1294]	< 1	> 100			> 100	> 100	1 to 10	
O=C(Cc1ccc2c(c1)OCO2)Nc1cc(Cl)c(O)c(Cl)c1 [Compound 1295]	1 to 10	> 100			> 100	> 100	1 to 10	
O=C(Nc1cc(Cl)c(O)c(Cl)c1)c1ccc2ccccc2c1 [Compound 1297]	< 1	> 100			> 100	> 100	10 to 50	50 to 100
O=C(Nc1cc(Cl)c(O)c(Cl)c1)c1ccccc1 [Compound 1298]	< 1	> 100			> 100	> 100	10 to 50	
O=C(Nc1cc(Cl)c(O)c(Cl)c1)c1ccco1 [Compound 1299]	< 1	> 100			< 1	> 100	10 to 50	
